{"source": "patent US10351500B2", "about": "“Method of using of dihydro-resveratrol or its stilbenoid derivatives and/or chemical variants as antimicrobial agents” (Hong Kong Baptist University, priority 2015, dated 2019)", "key": {"[1]": {"test_system": "cerulein-induced acute pancreatitis and associated pulmonary injury", "assay": "cerulein-induced acute pancreatitis in rats, oral dihydro-resveratrol", "format": "in vivo, Sprague-Dawley rats", "description": "Among the several established animal models, repetitive intraperitoneal (i.p.) injection of cholecystokinin secretagogue, cerulein, is the most widely used and a highly reproducible method for the production of an experimental acute pancreatitis. Followed by a single shot of lipopolysaccharide (LPS), pulmonary injury characterized by neutrophil sequestration in the lung tissues and increased permeability of the alveolar membrane barrier is often observed as an acute pancreatitis associated complication. For the diagnosis of the onset of acute pancreatitis, bulky leakage of digestive enzymes, namely α-amylase, into the bloodstream is regarded as the principal pathological parameter. For evaluating the severity of acute pancreatitis and the associated pulmonary injury, morphological alterations of organ architecture including interstitial edema, cellular damage, leukocyte infiltration and hemorrhage are characterized as the histological and/or pathological parameters. Besides histological examination, aberrant MPO activity is often measured for assessing the severity of neutrophil-mediated inflammatory condition. Both the local and systemic inflammatory responses can be further confirmed by the high levels of pro-inflammatory cytokines present in the homogenates of affected tissues. Moreover, glutathione depletion, a defense mechanism, is one of the most common parameters for assessing the severity of tissue injury.\nEvaluation of biological activities. Sprague-Dawley rats aged 28 days weighing in the range of 70 to 90 g were randomly assigned into 6 groups of 6 to 8 individuals. The rats were housed with an ambient temperature of 23±2° C., a relative humidity of 60 to 80% and a 12-h light/dark cycle. Prior to the experiment, the rats were starved overnight but allowed with free access to water. Experimental acute pancreatitis was induced in the rats by six hourly i.p. injections of cerulein at the supramaximally stimulating dose (50 μg/kg) followed by a single dose of LPS at 7.5 mg/kg 1 h after the last cerulein injection, and this group of rats was designated as the cerulein group. The control group received injections of 0.9% saline instead of cerulein in the same volume and at same time intervals. The treatment groups given with cerulein and oral doses of dihydro-resveratrol (10, 20 or 50 mg/kg) were designated as Cerulein+D-res 10 or 20 or 50 mg/kg. The therapeutic intervention was given 30 minutes after the first cerulein injection for three consecutive hours. Upon scarification, pancreata were immediately removed, weighed, trimmed from fat and fixed in 4% paraformaldehyde-phosphate buffered saline overnight at 4° C. Samples were then processed, embedded in paraffin wax, sectioned and subjected to H&E staining. Levels of TNF-α in pancreatic and pulmonary samples were determined using commercial ELISA kits. Tissue homogenates were subjected to biochemical assays for the evaluation of MPO activity and glutathione content."}, "[2]": {"test_system": "pancreatic acinar cells", "format": "cell-based", "conditions": "rat, 24 h", "method": "Functional intact acini were dissociated from pancreatic tissue using collagenase digestion with mild shearing forces. Acini were cultured in Dulbecco's modification of Eagle's medium (GIBCO) supplemented with 5% fetal bovine serum (GIBCO), 1% penicillin-streptomycin (GIBCO) in a 5% CO2, 95% air humidified atmosphere at 37° C. […] MTT reagent was added to the cells at the end of the 24-hour treatment period. After a 3-hour reaction time, MTT products were dissolved in DMSO and absorbance at 570 nm was taken."}, "[3]": {"test_system": "LTC-14 cells (pancreatic stellate cells)", "assay": "Western blotting of α-SMA and FN1 in TGF-β-challenged LTC-14 PSCs", "format": "cell-based, rat", "method": "LTC-14 cells were cultured at 37° C. under a humidified condition of 95% air and 5% CO2 in IMDM supplemented with 10% fetal bovine serum (FBS). Cells used in all the experiment were among passages 9 to 25. LTC-14 cells were seeded at a density of 1×10^5/well in a 12-well plate, and incubated with recombinant TGF-β at 5 ng/mL with dihydro-resveratrol at 0, 1, 5, 10 and 20 μg/mL in IMDM supplemented with 0.2% FBS for 24 hours. Cells were then harvested for protein extraction and Western blotting analysis or immunofluorescent staining.\nTotal proteins of the LTC-14 cells are extracted using RIPA lysis buffers containing protease inhibitors. Cell lysates were loaded and separated by SDS-polyacrylaminde gel electrophoresis. After wet electroblotting, proteins were transferred onto PVDF membranes (Bio-rad), blocked with 5% non-fat milk, probed with antibodies and visualized by utilization of an ECL kit (GE Healthcare).\nControl was not treated with Resv or any stilbenoids. Total proteins were extracted and analyzed using Western blotting.\nTotal proteins were extracted and analyzed using Western blotting."}, "[4]": {"test_system": "human melanoma A375 cell line", "assay": "MTT cell viability assay, A375", "format": "cell-based", "conditions": "A-375, 24 h", "method": "The human colorectal carcinoma HCT-116 cell line, human pancreatic ductal adenocarcinoma PANC-1 cell line, human melanoma A375 cell line and human embryonic kidney HEK293 cell line were purchased from the American Type Culture Collection. Cells were cultured in high glucose DMEM growth medium supplemented with 10% fetal bovine serum, penicillin and streptomycin (100 U) in a humidified atmosphere of 5% CO2, 95% air at 37° C. Upon the addition of dihydro-resveratrol (D-res) to the HCT-116, PANC-1, A375 or HEK293 cells seeded at a density of 8000 cells per well in a 96-well plate format, the viability of the testing cells was determined 24 h post treatment using the (3-(4,5-dimethylthiazol-2-yl)-2,5-diphenyltetrazolium bromide) tetrazolium (MTT) reduction assay and expressed as growth inhibition of 50% (GI50, Table 6)."}, "[5]": {"test_system": "PANC-1 human pancreatic ductal adenocarcinoma cells", "assay": "cell migration assay, PANC-1", "format": "cell-based", "conditions": "PANC-1, 25 μM, 24-h treatment"}}}
{"smiles": "Oc1ccc(CCc2cc(O)cc(O)c2)cc1", "note": "[Dihydro-resveratrol, trans-3,5,4′-trihydroxybibenzyl]", "values": [{"measurement": "Plasma α-amylase activities (mean)", "setting": "[1]; Cerulein + D-Res 10 mg (oral 10 mg/kg)", "result": 0.2891, "unit": "U/μl/minute"}, {"measurement": "Plasma α-amylase activities (mean)", "setting": "[1]; Cerulein + D-Res 20 mg (oral 20 mg/kg), #p<0.05 vs cerulein group", "result": "0.2498# U/μl/minute"}, {"measurement": "Plasma α-amylase activities (mean)", "setting": "[1]; Cerulein + D-Res 50 mg (oral 50 mg/kg), #p<0.05 vs cerulein group", "result": "0.2431# U/μl/minute"}, {"measurement": "MPO activities in pancreatic and pulmonary tissues", "setting": "[1]; oral", "result": "significantly reduced"}, {"measurement": "ameliorative effect on reducing pancreatic edema compared with trans-resveratrol", "setting": "[1]; oral", "result": "more promising than that of trans-resveratrol"}, {"measurement": "glutathione level in cerulein-induced pancreata", "setting": "[1]; oral", "result": "significantly suppressed glutathione depletion"}, {"measurement": "levels of TNF-α in pancreatic and pulmonary tissues", "setting": "[1]; oral, ELISA", "result": "significantly reduced"}, {"measurement": "focal expansion of interlobular septae, cytoplasmic shrinkage and leukocyte infiltration in pancreatic parenchyma", "setting": "[1]; oral, H&E", "result": "remarkably reduced"}, {"measurement": "pulmonary wall thickening and hemorrhage in lung tissues", "setting": "[1]; oral, H&E", "result": "significantly improved"}, {"measurement": "pancreatic edema (weight ratio of pancreas to body)", "setting": "[1]; oral, not less than 20 mg/kg", "result": "notably reduced the pancreatic edema"}, {"measurement": "cytotoxicity (MTT, mitochondrial metabolic rates)", "setting": "[2]", "result": "approximately 500 μM"}, {"measurement": "expression levels of α-SMA and FN1", "setting": "[3]; rat PSCs upon challenge of TGF-β", "result": "significantly attenuate"}, {"measurement": "anti-fibrotic effect in PSCs among the testing stilbenoids", "setting": "[3]; rat PSCs, TGF-β", "result": "most potent anti-fibrotic effect"}, {"measurement": "GI50", "setting": "[4]", "result": "107 ± 3.37", "unit": "µM"}, {"measurement": "migratory ability", "setting": "[5]", "result": "significant reduction in the migratory ability"}]}
